We go through 28 molecules from patent US10392347B2, “2,4-dihydroxy-nicotinamides as APJ agonists” (BRISTOL-MYERS SQUIBB COMPANY, priority 2015, dated 2019).

One test concerns the target T1, human APJ receptor (Homo sapiens, UniProt P35414).
T1 construct: expressed in transfected cells
T1 sequence (P35414 1-380): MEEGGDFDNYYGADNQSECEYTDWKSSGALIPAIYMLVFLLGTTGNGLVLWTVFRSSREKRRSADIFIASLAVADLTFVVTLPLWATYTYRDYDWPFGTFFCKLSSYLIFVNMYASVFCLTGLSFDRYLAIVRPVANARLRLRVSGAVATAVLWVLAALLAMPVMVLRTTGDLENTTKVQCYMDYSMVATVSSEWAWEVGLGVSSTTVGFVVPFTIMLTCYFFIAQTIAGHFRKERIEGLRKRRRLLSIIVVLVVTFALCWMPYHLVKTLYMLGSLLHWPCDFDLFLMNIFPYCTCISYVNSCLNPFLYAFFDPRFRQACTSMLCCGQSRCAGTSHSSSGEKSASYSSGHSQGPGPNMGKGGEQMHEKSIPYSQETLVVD
The test is described as follows: Intracellular cAMP accumulation assay (APJ hcAMP, HTRF). In kind it is cell-based. To be noted: APJ cAMP EC50 (nM), Table 1; HEK293 cells stably expressing human APJ, forskolin-stimulated cAMP. In a few lines: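 Inhibition of forskolin (2 μM)-stimulated cAMP, with […], was measured after 30 min compound exposure at room temperature in stably transfected HEK293 cells. HTRF ratios were converted to cAMP via standard curve, and EC50 values came from variable-slope sigmoidal concentration-response fitting.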
(cAMP levels reflect the balance of adenylyl cyclase and phosphodiesterase activity.)
A word on the EC50: it is the concentration giving half of the maximal effect. The molecule `CCCCc1[nH]c(=O)c(C(=O)N(CCC)Cc2ccccc2)c(O)c1-c1c(OC)cccc1OC` [Example 33, N-benzyl-6-butyl-5-(2,6-dimethoxyphenyl)-2,4-dihydroxy-N-propylpyridine-3-carboxamide] yielded an EC50 of 100 to 300 nM.

For the molecule `CCCCc1[nH]c(=O)c(C(=O)N2CC[C@@H](c3ccccc3)C2)c(O)c1-c1c(OC)cccc1OC` [Example 29, 6-butyl-5-(2,6-dimethoxyphenyl)-3-[(3S)-3-phenylpyrrolidine-1-carbonyl]pyridine-2,4-diol], the EC50 is 0.01 to 10 nM.

The same test, now with this note: Table 1; HEK293 cells stably expressing human APJ, forskolin-stimulated cAMP; read-out: APJ cAMP EC50.
`CCCCc1nc(O)c(C(=O)N2CCN(c3ccncc3)CC2)c(O)c1-c1c(OC)cccc1OC` [Example 22, 6-butyl-5-(2,6-dimethoxyphenyl)-3-[4-(pyridin-4-yl)piperazine-1-carbonyl]pyridine-2,4-diol]: the EC50 is 100 to 300 nM.

For `CCCCc1nc(O)c(C(=O)N2CCN(c3cccc(Cl)c3)CC2)c(O)c1-c1c(OC)cccc1OC` [Example 58, 6-butyl-3-[4-(3-chlorophenyl)piperazine-1-carbonyl]-5-(2,6-dimethoxyphenyl)pyridine-2,4-diol], the EC50 fell in the range of 10 to 100 nM.

Turning to `CCCCc1nc(O)c(C(=O)N2CCN(c3nsc4ccccc34)CC2)c(O)c1-c1c(OC)cccc1OC` [Example 49, 3-[4-(1,2-benzothiazol-3-yl)piperazine-1-carbonyl]-6-butyl-5-(2,6-dimethoxyphenyl)pyridine-2,4-diol], the EC50 was in the range of 0.01 to 10 nM.

Turning to `CCCCc1nc(O)c(C(=O)N2CCC(c3noc4cc(F)ccc34)CC2)c(O)c1-c1c(OC)cccc1OC` [Example 65, 6-butyl-5-(2,6-dimethoxyphenyl)-3-[4-(6-fluoro-1,2-benzoxazol-3-yl)piperidine-1-carbonyl]pyridine-2,4-diol], the EC50 is 10 to 100 nM.

Turning to `CCCCc1nc(O)c(C(=O)N2CCC(c3nc(CCC)no3)CC2)c(O)c1-c1c(OC)cccc1OC` [Example 5, 6-butyl-5-(2,6-dimethoxyphenyl)-3-[4-(3-propyl-1,2,4-oxadiazol-5-yl)piperidine-1-carbonyl]pyridine-2,4-diol], the EC50 is 10 to 100 nM.

On to `CCCCc1nc(O)c(C(=O)N2CCN(c3nc4ccccc4o3)CC2)c(O)c1-c1c(OC)cccc1OC` [Example 51, 3-[4-(1,3-benzoxazol-2-yl)piperazine-1-carbonyl]-6-butyl-5-(2,6-dimethoxyphenyl)pyridine-2,4-diol], for which the EC50 is 10 to 100 nM.

`CCCCc1nc(O)c(C(=O)N2CCC(c3cc(-c4ccccc4)[nH]n3)CC2)c(O)c1-c1c(OC)cccc1OC` [Example 67, 6-butyl-5-(2,6-dimethoxyphenyl)-3-[4-(5-phenyl-1H-pyrazol-3-yl)piperidine-1-carbonyl]pyridine-2,4-diol]: the EC50 lay in the range of 100 to 300 nM.

For `CCCCc1nc(O)c(C(=O)N2CCC(c3ccccc3OC)CC2)c(O)c1-c1c(OC)cccc1OC` [Example 19, 6-butyl-5-(2,6-dimethoxyphenyl)-3-[4-(2-methoxyphenyl)piperidine-1-carbonyl]pyridine-2,4-diol], the EC50 lay within 10 to 100 nM.

In the case of `CCCCc1nc(O)c(C(=O)N2CCC(c3[nH]cnc3C)CC2)c(O)c1-c1c(OC)cccc1OC` [Example 17, 6-butyl-5-(2,6-dimethoxyphenyl)-3-[4-(4-methyl-1H-imidazol-5-yl)piperidine-1-carbonyl]pyridine-2,4-diol], the EC50 lay within 10 to 100 nM.

Regarding `CCCCc1nc(O)c(C(=O)N2CCC3(CC2)OCc2ccccc23)c(O)c1-c1c(OC)cccc1OC` [Example 64, 6-butyl-5-(2,6-dimethoxyphenyl)-3-({3H-spiro[2-benzofuran-1,4′-piperidine]-1′-yl}carbonyl)pyridine-2,4-diol], the EC50 lay within 10 to 100 nM.

The same test, now with this note: Table 2; HEK293 cells stably expressing human APJ, forskolin-stimulated cAMP; read-out: APJ cAMP EC50.
On to `CCCCc1nc(O)c(C(=O)N2CCC(c3nc(-c4cc(C)c(OC)cc4Cl)c(C)s3)C2)c(O)c1-c1c(OC)cccc1OC` (racemic) [Example 9, 6-butyl-3-{3-[4-(2-chloro-4-methoxy-5-methylphenyl)-5-methyl-1,3-thiazol-2-yl]pyrrolidine-1-carbonyl}-5-(2,6-dimethoxyphenyl)pyridine-2,4-diol], for which the EC50 was 0.01 to 10 nM.

As to `CCCCc1nc(O)c(C(=O)N2CCC(c3cccc(Cl)c3)C2)c(O)c1-c1c(OC)cccc1OC` (single isomer, unassigned) [Example 37, 6-butyl-3-[3-(3-chlorophenyl)pyrrolidine-1-carbonyl]-5-(2,6-dimethoxyphenyl)pyridine-2,4-diol], the EC50 lay within 0.01 to 10 nM.

The test is the same for the next values; noted with them: Table 3; HEK293 cells stably expressing human APJ, forskolin-stimulated cAMP; read-out: APJ cAMP EC50.
Take `CCCCc1nc(O)c(C(=O)N2CCC(c3ccc(F)cn3)C2)c(O)c1-c1c(OC)cccc1OC` (stereo not shown) [Example 79, 6-butyl-5-(2,6-dimethoxyphenyl)-3-[3-(5-fluoropyridin-2-yl)pyrrolidine-1-carbonyl]pyridine-2,4-diol]: the EC50 fell in the range of 0.01 to 10 nM.

`CCCCc1nc(O)c(C(=O)N2CCC(c3ccc(Cl)cn3)C2)c(O)c1-c1c(OC)cccc1OC` (stereo not shown) [Example 75, 6-butyl-3-[3-(5-chloropyridin-2-yl)pyrrolidine-1-carbonyl]-5-(2,6-dimethoxyphenyl)pyridine-2,4-diol]: the EC50 was in the range of 0.01 to 10 nM.

The test is the same for the next values; noted with them: Table 4; HEK293 cells stably expressing human APJ, forskolin-stimulated cAMP; read-out: Human cAMP EC50.
In the case of `CCOCc1nc(O)c(C(=O)N2CCN(Cc3cccc(F)c3)CC2)c(O)c1-c1ccccc1OC` [Example 91, 6-(ethoxymethyl)-3-{4-[(3-fluorophenyl)methyl]piperazine-1-carbonyl}-5-(2-methoxyphenyl)pyridine-2,4-diol], the EC50 is 10 to 100 nM.

As for `CCCCc1nc(O)c(C(=O)N2CCC(Cc3cc(F)ccc3Br)CC2)c(O)c1-c1c(OC)cccc1OC` [Example 113, 3-{4-[(2-bromo-5-fluorophenyl)methyl]piperidine-1-carbonyl}-6-butyl-5-(2,6-dimethoxyphenyl)pyridine-2,4-diol], the EC50 lay in the range of 0.01 to 10 nM.

As for `CCCCc1nc(O)c(C(=O)N2CC[C@@H](c3ccccc3)C2)c(O)c1-c1cc(OC)ccc1OC` [Example 96, 6-butyl-5-(2,5-dimethoxyphenyl)-3-[(3S)-3-phenylpyrrolidine-1-carbonyl]pyridine-2,4-diol], the EC50 fell in the range of 0.01 to 10 nM.

Consider `CCCCc1nc(O)c(C(=O)N2CCN(Cc3cccc(F)c3F)CC2)c(O)c1-c1cccc(OC)c1OC` [Example 154, 6-butyl-3-{4-[(2,3-difluorophenyl)methyl]piperazine-1-carbonyl}-5-(2,3-dimethoxyphenyl)pyridine-2,4-diol], for which the EC50 lay in the range of 0.01 to 10 nM.

For the molecule `CCCCc1nc(O)c(C(=O)N2CCN(Cc3cccc(C)c3F)CC2)c(O)c1-c1c(OC)cccc1OC` [Example 121, 6-butyl-5-(2,6-dimethoxyphenyl)-3-{4-[(2-fluoro-3-methylphenyl)methyl]piperazine-1-carbonyl}pyridine-2,4-diol], the EC50 fell in the range of 0.01 to 10 nM.

Turning to `CCCCc1nc(O)c(C(=O)N2CCN(Cc3cccc(F)c3F)CC2)c(O)c1-c1c(OC)cccc1OC` [Example 108, 6-butyl-3-{4-[(2,3-difluorophenyl)methyl]piperazine-1-carbonyl}-5-(2,6-dimethoxyphenyl)pyridine-2,4-diol], the EC50 lay within 0.01 to 10 nM.

The same test, now with this note: Table 5; HEK293 cells stably expressing human APJ, forskolin-stimulated cAMP; read-out: Human cAMP EC50.
As to `CCOCc1nc(O)c(C(=O)N2CCC(c3ccccc3F)C2)c(O)c1-c1c(OC)cccc1OC` (stereo not shown) [Example 126, 5-(2,6-dimethoxyphenyl)-6-(ethoxymethyl)-3-[3-(2-fluorophenyl)pyrrolidine-1-carbonyl]pyridine-2,4-diol], the EC50 was 0.01 to 10 nM.

The test is the same for the next values; noted with them: Table 6; HEK293 cells stably expressing human APJ, forskolin-stimulated cAMP; read-out: Human cAMP EC50.
As for `CCCCc1nc(O)c(C(=O)N2CC[C@H](OCc3ccccc3)C2)c(O)c1-c1c(OC)cccc1OC` [Example 136, 3-[(3S)-3-(benzyloxy)pyrrolidine-1-carbonyl]-6-butyl-5-(2,6-dimethoxyphenyl)pyridine-2,4-diol], the EC50 lay within 0.01 to 10 nM.

In the case of `CCOCc1nc(O)c(C(=O)N2CCC(c3c(F)cccc3F)C2)c(O)c1-c1c(OC)cccc1OC` (stereo not shown) [Example 133, 3-[3-(2,6-difluorophenyl)pyrrolidine-1-carbonyl]-5-(2,6-dimethoxyphenyl)-6-(ethoxymethyl)-4-hydroxy-1,2-dihydropyridin-2-one], the EC50 is 0.01 to 10 nM.

Staying with this test, now noted: Table 7; HEK293 cells stably expressing human APJ, forskolin-stimulated cAMP; read-out: Human cAMP EC50.
For the molecule `CCCCc1nc(O)c(C(=O)N2CCC(c3ncc(F)cc3F)C2)c(O)c1-c1cccc(C(C)C)c1` (stereo not shown) [Example 140, 6-butyl-3-[3-(3,5-difluoropyridin-2-yl)pyrrolidine-1-carbonyl]-5-[3-(propan-2-yl)phenyl]pyridine-2,4-diol], the EC50 was 0.01 to 10 nM.

For `CCCCc1nc(O)c(C(=O)N2CCC(c3ncc(F)cc3F)C2)c(O)c1-c1cccc(C(=O)NC(C)C)c1` (stereo not shown) [Example 145, 3-{2-butyl-5-[3-(3,5-difluoropyridin-2-yl)pyrrolidine-1-carbonyl]-4,6-dihydroxypyridin-3-yl}-N-(propan-2-yl)benzamide], the EC50 lay within 0.01 to 10 nM.

As to `CCCCc1nc(O)c(C(=O)N2CCC(c3ncc(F)cc3F)C2)c(O)c1-c1cccc(C(=O)NC(C)C)c1` (stereo not shown) [Example 146, 3-{2-butyl-5-[3-(3,5-difluoropyridin-2-yl)pyrrolidine-1-carbonyl]-4,6-dihydroxypyridin-3-yl}-N-(propan-2-yl)benzamide], the EC50 was in the range of 0.01 to 10 nM.
